From PMC12399242 (Acta Pharmaceutica Sinica. B, 2025)

What was measured:
in vitro = conditions: human, CC50
Description: (§1) Inspired by our previous research on heteroaromatic-biphenyl-DAPYs[15], the 4-cyanophenyl group on the biphenyl moiety was replaced with a privileged 4-pyridyl group for further evaluation.

HIV-1 (IIIB) = experiment: microbe, parasite or virus in culture; type: cell-based; conditions: for EC50: Human immunodeficiency virus 1, IIIB, MT4, WT HIV-1, protection of MT-4 cells against HIV-induced cytopathogenicity, mean ± SD, n ≥ 3; for SI (IIIB): selectivity index, ratio CC50/EC50
Description: as §1

In the case of COc1cc(-c2ccncc2)ccc1Oc1nc(Nc2ccc(C#N)cc2)ncc1Cl [B15, 4-((5-Chloro-4-(2-methoxy-4-(pyridin-4-yl)phenoxy)pyrimidin-2-yl)amino)benzonitrile], the CC50 (in vitro) is reported as greater than 47 µM, the EC50 (HIV-1 (IIIB)) is reported as 0.0067 ± 0.0023 µM and the “SI (IIIB)” value (HIV-1 (IIIB)) is reported as greater than 6897.

In the case of Cc1cc(-c2ccncc2)cc(C)c1Oc1nc(Nc2ccc(C#N)cc2)ncc1Cl [B16, 4-((5-Chloro-4-(2,6-dimethyl-4-(pyridin-4-yl)phenoxy)pyrimidin-2-yl)amino)benzonitrile], the CC50 (in vitro) is reported as 243 ± 62 µM, the EC50 (HIV-1 (IIIB)) is reported as 0.105 ± 0.051 µM and the “SI (IIIB)” value (HIV-1 (IIIB)) is reported as 2327.

With N#Cc1ccc(Nc2ncc(Cl)c(Nc3ccc(-c4ccc(C#N)cc4)cc3Cl)n2)cc1 [B7, 3′-Chloro-4′-((5-chloro-2-((4-cyanophenyl)amino)pyrimidin-4-yl)amino)-[1,1′-biphenyl]-4-carbonitrile] the CC50 (in vitro) was greater than 273 µM, the EC50 (HIV-1 (IIIB)) was 0.046 ± 0.013 µM and the “SI (IIIB)” value (HIV-1 (IIIB)) was greater than 6026.

In the case of Cc1cc(-c2ccncc2)cc(C)c1Nc1nc(Nc2ccc(C#N)cc2)ncc1Cl [B22, 4-((5-Chloro-4-((2,6-dimethyl-4-(pyridin-4-yl)phenyl)amino)pyrimidin-2-yl)amino)benzonitrile], the CC50 (in vitro) is reported as 260 ± 6.5 µM, the EC50 (HIV-1 (IIIB)) is reported as 0.0089 ± 0.0007 µM and the “SI (IIIB)” value (HIV-1 (IIIB)) is reported as 29,634.

With N#Cc1ccc(Nc2ncc(F)c(Oc3ccc(-c4ccncc4)cc3F)n2)cc1 [A13, 4-((5-Fluoro-4-(2-fluoro-4-(pyridin-4-yl)phenoxy)pyrimidin-2-yl)amino)benzonitrile] the CC50 (in vitro) was greater than 50 µM, the EC50 (HIV-1 (IIIB)) was 0.0097 ± 0.0037 µM and the “SI (IIIB)” value (HIV-1 (IIIB)) was greater than 5147.

In the case of Cc1cc(-c2ccc(C#N)cc2)ccc1Nc1nc(Nc2ccc(C#N)cc2)ncc1Cl [B8, 4′-((5-Chloro-2-((4-cyanophenyl)amino)pyrimidin-4-yl)amino)-3′-methyl-[1,1′-biphenyl]-4-carbonitrile], the CC50 (in vitro) is reported as greater than 46 µM, the EC50 (HIV-1 (IIIB)) is reported as 0.0082 ± 0.0016 µM and the “SI (IIIB)” value (HIV-1 (IIIB)) is reported as greater than 5556.

In the case of N#Cc1ccc(Nc2ncc(Cl)c(Oc3ccc(-c4ccncc4)cc3F)n2)cc1 [B12, 4-((5-Chloro-4-(2-fluoro-4-(pyridin-4-yl)phenoxy)pyrimidin-2-yl)amino)benzonitrile], the CC50 (in vitro) is reported as greater than 48 µM, the EC50 (HIV-1 (IIIB)) is reported as 0.0077 ± 0.0019 µM and the “SI (IIIB)” value (HIV-1 (IIIB)) is reported as greater than 6173.

In the case of Cc1cc(-c2ccc(C#N)cc2)cc(C)c1Oc1nc(Nc2ccc(C#N)cc2)ncc1F [A6, 4′-((2-((4-Cyanophenyl)amino)-5-fluoropyrimidin-4-yl)oxy)-3′,5′-dimethyl-[1,1′-biphenyl]-4-carbonitrile], the CC50 (in vitro) is reported as 219 ± 12 µM, the EC50 (HIV-1 (IIIB)) is reported as 0.0071 ± 0.0032 µM and the “SI (IIIB)” value (HIV-1 (IIIB)) is reported as 30,805.

For Cc1cc(-c2ccncc2)ccc1Nc1nc(Nc2ccc(C#N)cc2)ncc1F [A21, 4-((5-Fluoro-4-((2-methyl-4-(pyridin-4-yl)phenyl)amino)pyrimidin-2-yl)amino)benzonitrile], the CC50 (in vitro) was greater than 51 µM, the EC50 (HIV-1 (IIIB)) was 0.0061 ± 0.0013 µM and the “SI (IIIB)” value (HIV-1 (IIIB)) was greater than 8421.

In the case of Cc1cc(-c2ccc(C#N)cc2)ccc1Oc1nc(Nc2ccc(C#N)cc2)ncc1F [A3, 4′-((2-((4-Cyanophenyl)amino)-5-fluoropyrimidin-4-yl)oxy)-3′-methyl-[1,1′-biphenyl]-4-carbonitrile], the CC50 (in vitro) is reported as greater than 48 µM, the EC50 (HIV-1 (IIIB)) is reported as 0.0076 ± 0.0026 µM and the “SI (IIIB)” value (HIV-1 (IIIB)) is reported as greater than 6349.

With Cc1cc(-c2ccncc2)cc(C)c1Oc1nc(Nc2ccc(C#N)cc2)ncc1F [A18, 4-((4-(2,6-Dimethyl-4-(pyridin-4-yl)phenoxy)-5-fluoropyrimidin-2-yl)amino)benzonitrile] the CC50 (in vitro) was greater than 49 µM, the EC50 (HIV-1 (IIIB)) was 0.056 ± 0.044 µM and the “SI (IIIB)” value (HIV-1 (IIIB)) was greater than 868.

With COc1cc(-c2ccc(C#N)cc2)ccc1Nc1nc(Nc2ccc(C#N)cc2)ncc1F [A10, 4′-((2-((4-Cyanophenyl)amino)-5-fluoropyrimidin-4-yl)amino)-3′-methoxy-[1,1′-biphenyl]-4-carbonitrile] the CC50 (in vitro) was greater than 46 µM, the EC50 (HIV-1 (IIIB)) was 0.023 ± 0.018 µM and the “SI (IIIB)” value (HIV-1 (IIIB)) was greater than 1961.

For N#Cc1ccc(Nc2ncc(F)c(Oc3ccc(-c4ccc(C#N)cc4)cc3Cl)n2)cc1 [A2, 3′-Chloro-4′-((2-((4-cyanophenyl)amino)-5-fluoropyrimidin-4-yl)oxy)-[1,1′-biphenyl]-4-carbonitrile], the CC50 (in vitro) was greater than 45 µM, the EC50 (HIV-1 (IIIB)) was 0.027 ± 0.025 µM and the “SI (IIIB)” value (HIV-1 (IIIB)) was greater than 1670.

For N#Cc1ccc(Nc2ncc(Cl)c(Nc3ccc(-c4ccncc4)cc3Cl)n2)cc1 [B18, 4-((5-Chloro-4-((2-chloro-4-(pyridin-4-yl)phenyl)amino)pyrimidin-2-yl)amino)benzonitrile], the CC50 (in vitro) was greater than 46 µM, the EC50 (HIV-1 (IIIB)) was 0.083 ± 0.069 µM and the “SI (IIIB)” value (HIV-1 (IIIB)) was greater than 563.

In the case of N#Cc1ccc(Nc2ncc(F)c(Oc3ccc(-c4ccncc4)cc3Cl)n2)cc1 [A14, 4-((4-(2-Chloro-4-(pyridin-4-yl)phenoxy)-5-fluoropyrimidin-2-yl)amino)benzonitrile], the CC50 (in vitro) is reported as greater than 48 µM, the EC50 (HIV-1 (IIIB)) is reported as 0.012 ± 0.0031 µM and the “SI (IIIB)” value (HIV-1 (IIIB)) is reported as greater than 3846.

For Cc1cc(-c2ccc(C#N)cc2)ccc1Oc1nc(Nc2ccc(C#N)cc2)ncc1Cl [B3, 4′-((5-Chloro-2-((4-cyanophenyl)amino)pyrimidin-4-yl)oxy)-3′-methyl-[1,1′-biphenyl]-4-carbonitrile], the CC50 (in vitro) was greater than 46 µM, the EC50 (HIV-1 (IIIB)) was 0.0071 ± 0.0016 µM and the “SI (IIIB)” value (HIV-1 (IIIB)) was greater than 6542.

In the case of COc1cc(-c2ccc(C#N)cc2)ccc1Nc1nc(Nc2ccc(C#N)cc2)ncc1Cl [B9, 4′-((5-Chloro-2-((4-cyanophenyl)amino)pyrimidin-4-yl)amino)-3′-methoxy-[1,1′-biphenyl]-4-carbonitrile], the CC50 (in vitro) is reported as 236 ± 24 µM, the EC50 (HIV-1 (IIIB)) is reported as 0.104 ± 0.068 µM and the “SI (IIIB)” value (HIV-1 (IIIB)) is reported as 2261.

With N#Cc1ccc(Nc2ncc(F)c(Nc3ccc(-c4ccncc4)cc3F)n2)cc1 [A19, 4-((5-Fluoro-4-((2-fluoro-4-(pyridin-4-yl)phenyl)amino)pyrimidin-2-yl)amino)benzonitrile] the CC50 (in vitro) was greater than 50 µM, the EC50 (HIV-1 (IIIB)) was 0.018 ± 0.014 µM and the “SI (IIIB)” value (HIV-1 (IIIB)) was greater than 2765.

In the case of N#Cc1ccc(Nc2ncc(Cl)c(Oc3ccc(-c4ccncc4)cc3Cl)n2)cc1 [B13, 4-((5-Chloro-4-(2-chloro-4-(pyridin-4-yl)phenoxy)pyrimidin-2-yl)amino)benzonitrile], the CC50 (in vitro) is reported as greater than 46 µM, the EC50 (HIV-1 (IIIB)) is reported as 0.0062 ± 0.0016 µM and the “SI (IIIB)” value (HIV-1 (IIIB)) is reported as greater than 7477.

For COc1cc(-c2ccncc2)ccc1Nc1nc(Nc2ccc(C#N)cc2)ncc1Cl [B20, 4-((5-Chloro-4-((2-methoxy-4-(pyridin-4-yl)phenyl)amino)pyrimidin-2-yl)amino)benzonitrile], the CC50 (in vitro) was 164 ± 51 µM, the EC50 (HIV-1 (IIIB)) was 0.536 ± 0.326 µM and the “SI (IIIB)” value (HIV-1 (IIIB)) was 306.

For N#Cc1ccc(Nc2ncc(F)c(Nc3ccc(-c4ccc(C#N)cc4)cc3Cl)n2)cc1 [A8, 3′-Chloro-4′-((2-((4-cyanophenyl)amino)-5-fluoropyrimidin-4-yl)amino)-[1,1′-biphenyl]-4-carbonitrile], the CC50 (in vitro) was greater than 45 µM, the EC50 (HIV-1 (IIIB)) was 0.043 ± 0.023 µM and the “SI (IIIB)” value (HIV-1 (IIIB)) was greater than 1038.

In the case of N#Cc1ccc(Nc2ncc(Cl)c(Oc3ccc(-c4ccc(C#N)cc4)cc3Cl)n2)cc1 [B2, 3′-Chloro-4′-((5-chloro-2-((4-cyanophenyl)amino)pyrimidin-4-yl)oxy)-[1,1′-biphenyl]-4-carbonitrile], the CC50 (in vitro) is reported as 35 ± 7.3 µM, the EC50 (HIV-1 (IIIB)) is reported as 0.0087 ± 0.002 µM and the “SI (IIIB)” value (HIV-1 (IIIB)) is reported as 3949.

Work on N#Cc1ccc(Nc2ncc(F)c(Nc3c(F)cc(-c4ccncc4)cc3F)n2)cc1 [A23, 4-((4-((2,6-Difluoro-4-(pyridin-4-yl)phenyl)amino)-5-fluoropyrimidin-2-yl)amino)benzonitrile] yielded a CC50 (in vitro) of 21 ± 18 µM and an EC50 (HIV-1 (IIIB)) of 0.0076 ± 0.0012 µM.

For N#Cc1ccc(Nc2ncc(Cl)c(Nc3ccc(-c4ccncc4)cc3F)n2)cc1 [B17, 4-((5-Chloro-4-((2-fluoro-4-(pyridin-4-yl)phenyl)amino)pyrimidin-2-yl)amino)benzonitrile], the CC50 (in vitro) was greater than 48 µM, the EC50 (HIV-1 (IIIB)) was 0.142 ± 0.014 µM and the “SI (IIIB)” value (HIV-1 (IIIB)) was greater than 342.

In the case of N#Cc1ccc(Nc2ncc(Cl)c(Nc3ccc(-c4ccc(C#N)cc4)cc3F)n2)cc1 [B6, 4′-((5-Chloro-2-((4-cyanophenyl)amino)pyrimidin-4-yl)amino)-3′-fluoro-[1,1′-biphenyl]-4-carbonitrile], the CC50 (in vitro) is reported as greater than 45 µM, the EC50 (HIV-1 (IIIB)) is reported as 0.012 ± 0.0027 µM and the “SI (IIIB)” value (HIV-1 (IIIB)) is reported as greater than 3911.

In the case of COc1cc(-c2ccncc2)ccc1Nc1nc(Nc2ccc(C#N)cc2)ncc1F [A22, 4-((5-Fluoro-4-((2-methoxy-4-(pyridin-4-yl)phenyl)amino)pyrimidin-2-yl)amino)benzonitrile], the CC50 (in vitro) is reported as greater than 49 µM, the EC50 (HIV-1 (IIIB)) is reported as 0.008 ± 0.0027 µM and the “SI (IIIB)” value (HIV-1 (IIIB)) is reported as greater than 6154.

With N#Cc1ccc(Nc2ncc(F)c(Nc3ccc(-c4ccncc4)cc3Cl)n2)cc1 [A20, 4-((4-((2-Chloro-4-(pyridin-4-yl)phenyl)amino)-5-fluoropyrimidin-2-yl)amino)benzonitrile] the CC50 (in vitro) was greater than 48 µM, the EC50 (HIV-1 (IIIB)) was 0.01 ± 0.0017 µM and the “SI (IIIB)” value (HIV-1 (IIIB)) was greater than 4819.

For Cc1cc(-c2ccncc2)ccc1Oc1nc(Nc2ccc(C#N)cc2)ncc1F [A15, 4-((5-Fluoro-4-(2-methyl-4-(pyridin-4-yl)phenoxy)pyrimidin-2-yl)amino)benzonitrile], the CC50 (in vitro) was greater than 50 µM, the EC50 (HIV-1 (IIIB)) was 0.011 ± 0.0025 µM and the “SI (IIIB)” value (HIV-1 (IIIB)) was greater than 4734.

With Cc1cc(-c2ccc(C#N)cc2)cc(C)c1Oc1nc(Nc2ccc(C#N)cc2)ncc1Cl [B5, 4′-((5-Chloro-2-((4-cyanophenyl)amino)pyrimidin-4-yl)oxy)-3′,5′-dimethyl-[1,1′-biphenyl]-4-carbonitrile] the CC50 (in vitro) was 39 ± 9.1 µM, the EC50 (HIV-1 (IIIB)) was 0.011 ± 0.0042 µM and the “SI (IIIB)” value (HIV-1 (IIIB)) was 3478.

With N#Cc1ccc(Nc2ncc(F)c(Oc3c(F)cc(-c4ccc(C#N)cc4)cc3F)n2)cc1 [A5, 4′-((2-((4-Cyanophenyl)amino)-5-fluoropyrimidin-4-yl)oxy)-3′,5′-difluoro-[1,1′-biphenyl]-4-carbonitrile] the CC50 (in vitro) was greater than 45 µM, the EC50 (HIV-1 (IIIB)) was 0.0063 ± 0.0032 µM and the “SI (IIIB)” value (HIV-1 (IIIB)) was greater than 7143.

For Cc1cc(-c2ccncc2)ccc1Nc1nc(Nc2ccc(C#N)cc2)ncc1Cl [B19, 4-((5-Chloro-4-((2-methyl-4-(pyridin-4-yl)phenyl)amino)pyrimidin-2-yl)amino)benzonitrile], the CC50 (in vitro) was greater than 48 µM, the EC50 (HIV-1 (IIIB)) was 0.044 ± 0.0097 µM and the “SI (IIIB)” value (HIV-1 (IIIB)) was greater than 1122.

For COc1cc(-c2ccc(C#N)cc2)ccc1Oc1nc(Nc2ccc(C#N)cc2)ncc1Cl [B4, 4′-((5-Chloro-2-((4-cyanophenyl)amino)pyrimidin-4-yl)oxy)-3′-methoxy-[1,1′-biphenyl]-4-carbonitrile], the CC50 (in vitro) was 11 ± 3.7 µM, the EC50 (HIV-1 (IIIB)) was 0.026 ± 0.013 µM and the “SI (IIIB)” value (HIV-1 (IIIB)) was 412.
